Experiments:
Type in all cases: cell-based
[1] = system: Lactobacillus salivarius ssp. salicinius strain JCM1044; assay: activity of cholic acid uptake by Lactobacillus salivarius ssp. salicinius strain JCM1044 in the presence of an oligosaccharide; details: 14C-labeled cholic acid; oligosaccharide added at 15 minutes after reaction start; control without oligosaccharide unchanged
Description: (§1) Lactic acid bacteria were cultured in a commercially available MRS medium overnight. The composition of the medium was as follows:
(§2) The harvested cells were washed with a buffer (pH 7.0) of 50 mM potassium phosphate containing 1 mM magnesium sulfate, and then the washed cells were re-suspended in a buffer comprising the same composition. The resulting cell suspension was allowed to stand for 30 minutes to make the cell membrane of the cells the state of deactivation. Then, the cells were harvested by centrifuging the suspension and washed with a buffer (pH 7.0) of 50 mM potassium phosphate containing 1 mM magnesium sulfate. […]
(§3) To 96 μl of the cell suspension prepared as above, 2 μl of 6 mM cholic acid solution (cholic acid (chenodeoxycholic acid) labeled with ^14C, 16 mCi/mmol) was added, and after allowing the resulting suspension to stand for 15 minutes, 0.1 μl of 0.33 M oligosaccharide solution was added thereto, and the measurement of the activity of bile acid uptake was started. After a predetermined time, the reaction was stopped by adding 3 ml of a buffer of 100 mM potassium phosphate containing 100 mM […], and then the reaction solution was filtered through a cellulose acetate membrane (pore size: 0.45 μm), and the radioactivity left on the membrane was measured by a scintillation counter. […]

[2] = system: Bifidobacterium breve strain JCM1192; assay: activity of cholic acid uptake by Bifidobacterium breve strain JCM1192 in the presence of an oligosaccharide; details: 14C-labeled cholic acid; oligosaccharide added at 15 minutes after reaction start; control without oligosaccharide unchanged
Description: as §1, §2, §3

[3] = system: Bifidobacterium breve strain JCM1192; assay: activity of chenodeoxycholic acid uptake by Bifidobacterium breve strain JCM1192 in the presence of an oligosaccharide; details: for chenodeoxycholic acid concentration in the cells relative to that of the outside of the cells: 14C-labeled chenodeoxycholic acid, oligosaccharide added at 15 minutes after reaction start, maximum rise
Description: as §1
The harvested cells were washed with a buffer (pH 7.0) of 50 mM potassium phosphate containing 1 mM magnesium sulfate, and then the washed cells were re-suspended in a buffer comprising the same composition. The resulting cell suspension was allowed to stand for 30 minutes to make the cell membrane of the cells the state of deactivation. Then, the cells were harvested by centrifuging the suspension and washed with a buffer (pH 7.0) of 50 mM potassium phosphate containing 1 mM magnesium sulfate. Thereafter, the washed cells were re-suspended in a buffer comprising the same composition, and the cell suspension was adjusted so as to have the turbidity of 10.
To 96 μl of the cell suspension prepared as above, 2 μl of 6 mM cholic acid solution (cholic acid (chenodeoxycholic acid) labeled with ^14C, 16 mCi/mmol) was added, and after allowing the resulting suspension to stand for 15 minutes, 0.1 μl of 0.33 M oligosaccharide solution was added thereto, and the measurement of the activity of bile acid uptake was started. After a predetermined time, the reaction was stopped by adding 3 ml of a buffer of 100 mM potassium phosphate containing 100 mM […], and then the reaction solution was filtered through a cellulose acetate membrane (pore size: 0.45 μm), and the radioactivity left on the membrane was measured by a scintillation counter. In addition, as a control, the radioactivity of a sample adding no oligosaccharide was measured similarly.

[4] = system: Bifidobacterium infantis strain JCM1222; assay: cholic acid uptake by Bifidobacterium infantis strain JCM1222 in a nystose added-cell suspension
Description: as §1, §2, §3

Row | SMILES | cholic acid concentration in the cells relative to that of the outside of the cells [1] | cholic acid concentration in the cells relative to that of the outside of the cells [2] | chenodeoxycholic acid concentration in the cells relative to that of the outside of the cells [3] | chenodeoxycholic acid concentration in the cells relative to outside at equilibrium after passive elimination ([3]; after oligosaccharide almost consumed (after 30 minutes), concentration came to equilibrium) | cholic acid incorporation into the cells [4]
1 | OC[C@H]1O[C@@](CO)(OC[C@@]2(O[C@H]3O[C@H](CO)[C@@H](O)[C@H](O)[C@H]3O)O[C@H](CO)[C@@H](O)[C@@H]2O)[C@@H](O)[C@@H]1O [1-kestose] | about 13 times | about 24 times | about 15 times | about 2 times | –
2 | OC[C@H]1O[C@@](CO)(OC[C@@]2(OC[C@@]3(O[C@H]4O[C@H](CO)[C@@H](O)[C@H](O)[C@H]4O)O[C@H](CO)[C@@H](O)[C@@H]3O)O[C@H](CO)[C@@H](O)[C@@H]2O)[C@@H](O)[C@@H]1O [nystose] | – | – | – | – | cholic acid was incorporated into the cells
3 | OC[C@H]1O[C@H](OC[C@H]2O[C@H](O[C@]3(CO)O[C@H](CO)[C@@H](O)[C@@H]3O)[C@H](O)[C@@H](O)[C@@H]2O)[C@H](O)[C@@H](O)[C@H]1O [raffinose] | about 8 times | about 30 times | about 6 times | – | –
